Broadly, the EC50 is the concentration at which the effect is half-maximal.

Here are results for twelve compounds from US20110207789A1, “METHODS RELATED TO CASEIN KINASE II (CK2) INHIBITORS AND THE USE OF PURINOSOME-DISRUPTING CK2 INHIBITORS FOR ANTI-CANCER THERAPY AGENTS” (priority 2010, published 2011).

Assay type in all cases: cell-based
Experiment [1] has as its system HeLa cells. The experiment in a line: Label-free Epic RWG biosensor DMR assay in HeLa cells cultured in regular serum medium. As to conditions: for Type of DMR signal triggered by the compound alone: HeLa cells, regular serum medium, high confluency; for Effect of pretreatment on the sequential TBB response after DMAT / Effect of pretreatment on the sequential DMAT response after TBB: order modulator (10 μM), each step about 1 hr; for Effect of pretreatment on the sequential TBB response after DMAT / Effect of pretreatment on the sequential DMAT response after TBB / Effect of pretreatment on the TBB DMR response / Sensitivity of the DMR signal to cellular status: DMAT 25 μM; for Effect of pretreatment on the sequential TBB response after DMAT / Effect of pretreatment on the DMAT DMR response / Effect of pretreatment on the sequential DMAT response after TBB: TBB 50 μM; for Effect of pretreatment on the DMAT DMR response / Effect of pretreatment on the TBB DMR response: pretreatment about 1 hr, modulators 10 μM; for Effect of pretreatment on the DMAT DMR response: then DMAT 25 μM; for Effect of pretreatment on the TBB DMR response: then TBB 50 μM; for Classification as purinosome promoting or disrupting CK2 inhibitor: from DMR signals in HeLa cells; for EC50: Homo sapiens, synchronized HeLa cells, 25,000 cells per well; for Effect on purinosome complexes in quiescent cells: high seeding density; for Effect on purinosome complexes in proliferating cells: low seeding density; for Sensitivity of the DMR signal to cellular status: three seeding densities (5,000, 10,000, 20,000 cells per well), TBB 100 μM. The source says: HeLa cells were obtained from American Type Cell Culture (Manassas, Va.). This cervical cancer cell line was maintained in standard serum medium (i.e., minimum essential medium (MEM) (Invitrogen) supplemented with 10% fetal bovine serum (FBS) and 1% Penicillin/streptomycin). To investigate the effects of purine depletion on the purinosome formation and dissociation, HeLa cells were maintained for at least two passages in “purine-depleted medium” prior cell assays. […] FBS was dialyzed against 0.9% NaCl at 4° C. for ˜2 days using a 25 kDa MWCO dialysis membrane to remove purines. This process completely removes the purines normally present in FBS.
Cells were typically grown using ˜1 to 2×10^4 cells per well at passage 3 to 15 suspended in 50 μl of the corresponding culture medium in the biosensor microplate, and were cultured at 37° C. under air/5% CO2 for ˜1 day. The confluency for all cells at the time of assays was ˜100%.
Epic® wavelength interrogation system (Corning Inc., Corning, N.Y.) was used for whole cell sensing. This system consists of a temperature-control unit, an optical detection unit, and an on-board liquid handling unit with robotics. The detection unit is centered on integrated fiber optics, and enables kinetic measures of cellular responses with a time interval of ˜15sec. The compound solutions were introduced by using the on-board liquid handling unit (i.e., pippetting).
(§1) For biosensor cellular assays, compound solutions were made by diluting the stored concentrated solutions with the HBSS (1× Hanks balanced salt solution, plus 20 mM Hepes, pH 7.1), and transferred into a 384 well polypropylene compound storage plate to prepare a compound source plate. Two compound source plates were made separately when a two-step assay was performed. In parallel, the cells were washed twice with the HBSS and maintained in 30 μl of the HBSS to prepare a cell assay plate. Both the cell assay plate and the compound source plate(s) were then incubated in the hotel of the reader system. After incubation the baseline wavelengths of all biosensors in the cell assay microplate were recorded and normalized to zero. Afterwards, a 2 to 10 min continuous recording was carried out to establish a baseline, and to ensure that the cells reached a steady state. Cellular responses were then triggered by transferring 10 μl of the compound solutions into the cell assay plate using the on-board liquid handler.
All studies were carried out at a controlled temperature (28° C.). At least two independent sets of experiments, each with at least three replicates, were performed.

Experiment [2] deals with purinosome complexes. The experiment in a line: Fluorescence imaging of purinosome complexes, transient transfection of fluorescent purine synthesis enzymes. As to conditions: purine depleted medium cultured cells, low confluency (~50%); data not shown. The source says:
The inconsistency in the action of TBB between fluorescence imaging and label-free cellular assays can be due to that confocal fluorescence imaging is largely single cell-based, while label-free assay is largely population cells-based, as well as different confluencies used in both assays.

In experiment [3] the test system is HT29 cells. The experiment in a line: TBB-mediated DMR signal in HT29 cells. As to conditions: 10 μM TBB, highly confluent cells. As for the experimental part: as §1, with “All other cell lines were obtained from American Type Cell Culture (Manassas, VA) and were cultured under corresponding standard culture conditions, according to the protocol recommended by the supplier. Cells were typically grown using ˜1 to 2×10^4 cells per well at passage 3 to 15 suspended in 50 μl of the corresponding culture medium in the biosensor microplate, and were cultured at 37° C. under air/5% CO2 for ˜1 day. The confluency for all cells at the time of assays was ˜100%. For” for “For”, “Cellular responses were then triggered by transferring 10 μl of the compound solutions into the cell assay plate using the on-board liquid handler.” left out

Experiment [4] relates to HeLa cells. The experiment in a line: Label-free Epic DMR assay in HeLa cells cultured in purine depleted medium. As to conditions: TBB 100 μM, DMAT 25 μM. The text has this: HeLa cells were obtained from American Type Cell Culture (Manassas, Va.). This cervical cancer cell line was maintained in standard serum medium (i.e., minimum essential medium (MEM) (Invitrogen) supplemented with 10% fetal bovine serum (FBS) and 1% Penicillin/streptomycin). To investigate the effects of purine depletion on the purinosome formation and dissociation, HeLa cells were maintained for at least two passages in “purine-depleted medium” prior cell assays. The purine depleted medium is a medium consisting of Roswell Park Memorial Institute 1640 (RPMI 1640) supplemented with dialyzed 5% FBS […]. FBS was dialyzed against 0.9% NaCl at 4° C. for ˜2 days using a 25 kDa MWCO dialysis membrane to remove purines. This process completely removes the purines normally present in FBS. […]
For biosensor cellular assays, compound solutions were made by diluting the stored concentrated solutions with the HBSS (1× Hanks balanced salt solution, plus 20 mM Hepes, pH 7.1), and transferred into a 384 well polypropylene compound storage plate to prepare a compound source plate. […] Both the cell assay plate and the compound source plate(s) were then incubated in the hotel of the reader system. After incubation the baseline wavelengths of all biosensors in the cell assay microplate were recorded and normalized to zero. […]

Structures are written as SMILES. Like-named read-outs stand apart in the source and are kept apart here. Numbered stars: 1 amine (or outer) side, 2 acyl side, 3 side chain; on linkers, the order of the positions; unused ones are H or OH. Bridge positions count the residues as written; N and C are the ends. Square brackets hold non-standard residues; d marks the D form. Peptide text beside a SMILES is read from it. Trp(2-yl) = O=C([C@H](Cc1c([*:3])[nH]c2ccccc12)N[*:1])[*:2]; Leu(4R-OH,5-OH) = C[C@](O)(CO)C[C@H](N)C(=O)O; cisHyp = O=C(O)[C@@H]1C[C@H](O)CN1

For the compound `CC(C)(C)NCC(O)c1cc(O)cc(O)c1` (stereo not drawn) [terbutaline], in experiment [1], the “Type of DMR signal triggered by the compound alone” value (“Type of DMR signal triggered” for short) is “Gs-like DMR signal”, the “Effect of pretreatment on the sequential TBB response after DMAT” value (“Effect of pretreatment … after DMAT” for short) was “little or no impact” and the “Effect of pretreatment on the DMAT DMR response” value is “little or no impact”.
For the compound `C/C1=C/C(=O)O[C@@H]2C[C@@H](CC[C@H](C)/C=C\C=C\CC1)O[C@@](O)([C@@H]1CSC(=O)N1)C2` [latrunculin A], in experiment [1], the “Effect of pretreatment … after DMAT” value is “altered”, the “Effect of pretreatment on the sequential DMAT response after TBB” value was “smaller DMAT response”, the “Effect of pretreatment on the DMAT DMR response” value was “attenuated” and the “Effect of pretreatment on the TBB DMR response” value (from here on “Effect … on the TBB DMR response”) is recorded as “completely inhibiting the early DMR event”.
Taken in the same sequence, the figures for `COC(=O)Nc1nc2ccc(C(=O)c3cccs3)cc2[nH]1` [nocodazole] were “slightly suppressed”, “suppression”, “potentiated” and “reversed”.
For the compound `CC[C@]1(O)C[C@@H]2CN(CCc3c([nH]c4ccccc34)[C@@](C(=O)OC)(c3cc4c(cc3OC)N(C)[C@H]3[C@@](O)(C(=O)OC)[C@H](OC(C)=O)[C@]5(CC)C=CCN6CC[C@]43[C@@H]65)C2)C1` [vinblastine], in experiment [1], the “Effect of pretreatment on the sequential DMAT response after TBB” value was “suppression” and the “Effect … on the TBB DMR response” value is listed as “reversed”.
With `O=C(O)/C=C/c1cc(Br)c(Br)c(Br)c1Br` [TBCA, Tetrabromocinnamic Acid], in experiment [1], the “Type of DMR signal triggered” value was “DMR signals similar to the DMAT response”, the “Classification as purinosome promoting or disrupting CK2 inhibitor” value was “purinosome promoting CK2 inhibitors”, the “Effect of pretreatment on the DMAT DMR response” value was “desensitized” and the “Effect … on the TBB DMR response” value is given as “slightly potentiated”.
For the compound `O=c1cc(-c2ccc(O)cc2)oc2cc(O)cc(O)c12` [apigenin], in experiment [1], the “Type of DMR signal triggered” value is given as “DMR signals similar to the DMAT response” and the “Classification as purinosome promoting or disrupting CK2 inhibitor” value is “purinosome promoting CK2 inhibitors”.
With `OC[C@H]1O[C@@H](n2cnc3cc(Cl)c(Cl)cc32)[C@H](O)[C@@H]1O` [DRB, 5,6-Dichlorobenzimidazole 1-(β-D-ribofuranoside], in experiment [1], the “Type of DMR signal triggered” value is given as “DMR signals similar to the DMAT response”, the “Classification as purinosome promoting or disrupting CK2 inhibitor” value is on record as “purinosome promoting CK2 inhibitors”, the “Effect of pretreatment on the DMAT DMR response” value is given as “desensitized” and the “Effect … on the TBB DMR response” value is given as “slightly potentiated”.
On to `C[C@@H]1NC(=O)[C@H](C[C@@](C)(O)CO)NC(=O)[C@@H]2Cc3c([nH]c4ccccc34)SC[C@H](NC(=O)[C@@H]([C@H](C)O)NC1=O)C(=O)N1C[C@@H](O)C[C@H]1C(=O)N[C@@H](C)C(=O)N2` [phalloidin] (cyclo(A[dT]C[cisHyp]A[Trp(2-yl)][Leu(4R-OH,5-OH)]); thioether 3-6), for which, in experiment [1], the “Effect of pretreatment on the DMAT DMR response” value is “little impact” and the “Effect … on the TBB DMR response” value was “little impact”.
In the case of `Brc1c(Br)c(Br)c2[nH]nnc2c1Br` [TBB, 4,5,6,7-tetrabromobenzotriazole], in experiment [2], the “Effect on purinosome complexes by fluorescence imaging” value is reported as “disassembly of purinsome complexes”. Further, in experiment [1], the “Type of DMR signal triggered” value is recorded as “N-DMR”, the “Classification as purinosome promoting or disrupting CK2 inhibitor” value is reported as “pruinosome disrupting CK2 inhibitors”, the “Effect on purinosome complexes in quiescent cells” value was “causes the disassembly of basal purinosome complexes” and the “Effect on purinosome complexes in proliferating cells” value is “promote the formation of purinosomes”. For the same compound, in experiment [1], the “Effect of pretreatment on the DMAT DMR response” value is recorded as “slightly potentiated” and the “Sensitivity of the DMR signal to cellular status” value was “dramatically sensitive to cellular status”. The EC50 in experiment [1] (50 min, amplitude 50 min after stimulation, read-out: EC50 of dose-dependent N-DMR signal) was determined as 25 µM. Further, in experiment [3], the “TBB DMR signal in HT29 cells” value is recorded as “an initial P-DMR followed by a N-DMR”. In addition, the “Type of DMR signal in purine depleted culture” value in experiment [4] is on record as “P-DMR”.
For the compound `Clc1cccc(Cl)c1N=C1NCCN1` [clonidine], the “Effect … on the TBB DMR response” value in experiment [1] is “dose-dependently potentiated”.
`CN(C)c1nc2c(Br)c(Br)c(Br)c(Br)c2[nH]1` [DMAT, 2-Dimethylamino-4,5,6,7-tetrabromo-1H-benzimidazole]: the “Effect on purinosome complexes by fluorescence imaging” value in experiment [2] is given as “formation of purinosome complexes”. In experiment [1], the “Type of DMR signal triggered” value was “P-DMR”, the “Classification as purinosome promoting or disrupting CK2 inhibitor” value was “purinosome promoting CK2 inhibitors”, the “Effect on purinosome complexes in quiescent cells” value is recorded as “promotes the further formation of purinosome complexes” and the “Effect on purinosome complexes in proliferating cells” value is on record as “promote the formation of purinosomes”. Moreover, in experiment [1], the “Effect … on the TBB DMR response” value is on record as “N-DMR similar to the buffer treated cells” and the “Sensitivity of the DMR signal to cellular status” value is “insensitive to cellular status”. For the same compound, in experiment [1] (dependent on the time points after stimulation (6 min and 50 min), read-out: EC50 of dose-dependent P-DMR response), the EC50 is 5 to 22 µM. Further, the “Type of DMR signal in purine depleted culture” value in experiment [4] is given as “P-DMR”.
As for `Cc1cc(C(C)(C)C)c(O)c(C)c1CC1=NCCN1` [oxymetazoline], in experiment [1], the “Type of DMR signal triggered” value is listed as “Gi-like DMR signal”, the “Effect of pretreatment … after DMAT” value is on record as “potentiation” and the “Effect of pretreatment on the DMAT DMR response” value is listed as “attenuated”.
